Experimental findings from US4151300A, “Acetohydroxamic acids” (Laboratoire L. Lafon, priority 1976, dated 1979) are described below.

In data set [1] the test system is rats. The data set is described as follows: interaction with apomorphine (stereotype behaviour in rats). The format is in vivo. The protocol: (§1) The following text summarises a part of the results of the tests which were carried out with the products according to the invention, these products (unless otherwise stated) being administered intraperitoneally, in suspension in a gum solution (gum arabic), in a volume of 20 ml/kg in the case of mice and of 5 ml/kg in the case of rats.
Batches of six rats are each given a subcutaneous injection of apomorphine (0.5 mg/kg) 30 minutes after the administration of CRL 40,373.
Batches of 6 rats are given a subcutaneous injection of 0.5 mg/kg of apomorphine 30 minutes after the administration of CRL 40,385.

The subject of data set [2] is mice. The data set is described as follows: interaction with oxotremorine (temperature, trembling, peripheral cholinergic symptoms). The format is in vivo. To be noted: mice, i.p.
The subject of data set [3] is mice. The data set is described as follows: spontaneous motility (actimeter). Format: in vivo. To be noted: i.p. The protocol:
as §1
Thirty minutes after having been given CRL 40,373, the mice (6 per dose, 12 comparison animals) are placed in an actimeter, where their motility is recorded for half an hour.
Thirty minutes after having been given CRL 40,385, the mice are placed in actimeters where their motility is recorded for half an hour.

In data set [4] the test system is rats. The data set is described as follows: prolonged conditioning to take avoiding action (shuttle box). The format is in vivo. From the text:
Rats placed in a shuttle box are conditioned to avoid an electric shock by changing sides. The shock is preceded by a sound and light stimulus lasting 3 seconds, which ceases when sides are changed or after 8 seconds. The sequence is repeated every 20 seconds. Animals conditioned for several tens of minutes show a percentage of avoidance which is close to 100%. They continue to be subjected to the stimulus […] and gradually they reach a state in which they are no longer able to change sides during the period of 3 seconds during which no shock is delivered.
As a first approximation, such an effect can be likened to a resumption of conditioned activity in a tired animal.
Rats placed in a "shuttle box" are conditioned to avoid an electric shock lasting 5 seconds, by changing sides. The shock is preceded, for 3 seconds, by a sound and light stimulus which ceases when the rat changes side, or at the end of 8 seconds. The sequence repeats every 20 seconds. […] They continue to be subjected to the stimulus every 20 seconds and gradually they no longer succeed in avoiding the shock.
CRL 40,438 is then administered and any resumption of the avoidance movements is followed until the effect ceases.

For data set [5], the system named is rats. Nature of the data set: interaction with amphetamine (stereotypies in rats). Format: in vivo. Here is the method:
as §1
30 minutes after the administration of CRL 40,373, amphetamine is injected intraperitoneally at a dose of 2 mg/kg.
Thirty minutes after the administration of CRL 40,385 the rats are given an intraperitoneal injection of 2 mg/kg of amphetamine (6 animals per dose).

Data set [6] concerns mice. Nature of the data set: motility reduced by habituation to a cage (residual motility). The format is in vivo. To be noted: i.p. Here is the method: as §1
Mice which have remained for 18 hours in the actimeters are given CRL 40,373. They are immediately replaced in their cages and, after a period of half an hour, their motility is recorded for 30 minutes (6 animals per dose, 12 comparison animals).
After remaining for 18 hours in the actimeters, the mice receive CRL 40,385. Immediately afterwards they are replaced in their cage and half an hour afterwards the recording of the motility starts and is continued for 30 minutes.

In another data set the test system is central nervous system. Nature of the data set: psychopharmacological study / behaviour. The format is in vivo, mice.
The test system of data set [7] is mice. Nature of the data set: inter-group aggressiveness (number of fights). Format: in vivo. To be noted: mice, i.p. The protocol:
as §1
After three weeks' residence in each of the halves of a cage divided by an opaque partition, the mice receive CRL 40,373 thirty minutes before being brought together by withdrawing the partition.
After 18 days' residence on either side of a partition separating their cage in the middle, groups of 3 mice receive CRL 40,385 and are brought together half an hour later by withdrawing the partition, and the number of fights which take place in the course of 15 minutes is noted.

For data set [8], the system named is mice. Nature of the data set: toxicity (isolated mice, intraperitoneal). Format: in vivo. To be noted: mice, i.p. Here is the method: as §1
In data set [9] the test system is mice. The data set is described as follows: interaction with reserpine (hypothermia, ptosis). The format is in vivo.
For another data set, the system named is man. The data set is described as follows: clinical use in man. Format: in vivo. The conditions noted are these: tablet or pill 100 mg, 2 to 3 per day.
For data set [10], the system named is mice. Nature of the data set: electrical shock (convulsing effects). To be noted: mice, i.p., large dose. Format: in vivo, mice (EVIC CEBA strain). Here is the method: as §1
(§2) The test is carried out on batches of 10 sensitive mice (EVIC CEBA strain), 30 minutes after the administration of CRL 40,373.
(§3) Batches of 10 mice are subjected to the test thirty minutes after having received CRL 40,385.

Data set [11] concerns awake rats with spontaneous hypertension. Nature of the data set: hypotensive action in awake rats with spontaneous hypertension. Format: in vivo. To be noted: 100 mg/kg orally. The protocol: In the tests reported below, CRL 40,385 was administered in suspension in a solution of gum arabic, in a volume of 2 ml/kg. The hypotensive action was studied in awake rats with spontaneous hypertension. One batch of 7 rats is given 100 mg/kg of CRL 40,385 orally, followed, 2 hours later, by a fresh dose of 100 mg/kg of this product.

Data set [12] can be described thus: toxicity in mice in groups. The conditions noted are these: mouse, in vivo, ip. The protocol: as §1
The LD50 for intraperitoneal administration are as follows: […]

Data set [13] relates to mice. Nature of the data set: four-plate test. The format is in vivo, mice (EVIC CEBA strain). To be noted: mice, i.p. The protocol:
as §1, §2, §3

Data set [14] deals with mice. The data set is described as follows: traction (motor incoordination). To be noted: i.p. The format is in vivo, mice (EVIC CEBA strain).
For data set [15], the system named is catalepsy induced by prochlorperazine. The data set is described as follows: anticataleptic effect (prochlorperazine-induced catalepsy). The format is in vivo. To be noted: i.p., 256 mg/kg. Here is the method: CRL 40,385 or amantadine are administered intraperitoneally 4 hours and 30 minutes after the injection of prochlorperazine (12.5 mg/kg administered intraperitoneally). The catalepsy is assessed every 30 minutes by the plug test (9 cm), the four plug test, the test using parallel bars and the test of crossing the paws on the same side.

A short description of data set [16]: toxicity (isolated mice, intraperitoneal). To be noted: mouse, in vivo, ip, isolated mice. Format: in vivo. Here is the method:
as §1

The test system of data set [17] is mice. The data set is described as follows: motility reduced by hypoxia treatment (motor recovery). Format: in vivo. To be noted: mice, i.p.

“Also recorded” adds a separate entry of the source. Where two headings read alike, the source gives them in different places.

As for `CC(C(=O)NO)C(=O)N(c1ccccc1)c1ccccc1` (stereo not drawn) [CRL 40,438, 2-(N,N-Diphenylcarbamoyl)-propionohydroxamic acid], in the data set with rats [1] (high dose), the apomorphine-induced stereotypies result is on record as “boosting of the stereotypies induced by apomorphine”. Further, the oxotremorine-induced trembling entry in the data set on mice [2] is “moderately opposes hypothermia and ptosis induced by reserpine, and the trembling movements caused by oxotremorine”. Moreover, in the data set with mice [3], the spontaneous motility entry is reported as “moderate increase in the spontaneous motor activity”. In addition, the “resumption of avoiding actions (prolonged avoidance test)” value (shortened to “resumption of avoiding actions”) in the data set on rats [4] is “an effect of the "anti-fatigue" type”. Besides, the “resumption of avoiding actions” value in the data set on rats [4] (i.p., 64, 128 and 256 mg/kg) is “causes a resumption of the avoidance behaviour”. Also, the amphetamine-induced stereotypies result in the data set on rats [5] (high dose) is “boosting of the stereotypies induced by apomorphine and by amphetamine”. In addition, the “motility reduced by habituation to the cage” value in the data set with mice [6] is “very marked stimulant effect where the motility has been reduced by habituation to the cage”. Also, in the data set on central nervous system (high dose), the “stereotype movements (product alone)” value is on record as “presence, at a high dose, of stereotype movements”. The reactivity result with central nervous system (mice) is “hyper-reactivity in mice”. For the same molecule, the “psychopharmacological profile / conclusion” value with central nervous system (mouse, in vivo) was “effects of the excitation-inducing type; also recorded: activity of the anti-depressant type or of the psychostimulant type”. Also, the aggressiveness entry in the data set with mice [7] (large/high dose) is given as “reduces the aggressive behaviour of mice”. Besides, the “LD-O (maximum non-lethal dose)” value in the data set on mice [8] was “greater than 1,024 mg/kg”. Further, in the data set with mice [9] (i.p.), the reserpine-induced hypothermia result is “moderately opposes hypothermia”; the reserpine-induced ptosis entry is “moderately opposes hypothermia and ptosis induced by reserpine”.
As a reminder, the LD50 is the dose expected to kill half of the subjects tested. A higher LD50 goes with a less toxic substance. Regarding `O=C(CC(=O)N(c1ccccc1)c1ccccc1)NO` [CRL 40,385, α-(N,N-Diphenylcarbamoyl)-acetohydroxamic acid], the clinical result in the data set on man was “used clinically with success for anti-fatigue treatment”. Further, in the data set with mice [10], the “convulsing effects of the electrical shock” value is recorded as “counteracts the convulsing effects of the electrical shock”. Moreover, in the data set on rats [1] (rats, i.p., large dose, apomorphine 0.5 mg/kg s.c.), the apomorphine-induced stereotypies entry is listed as “increase in the duration of the stereotypies induced by apomorphine”. Further, in the data set on mice [2], the “peripheral cholinergic symptoms of oxotremorine” value was “does not modify the increase in salivation, lachrymation and defaecation”. In the data set with mice [2] (128 mg/kg and above all 512 mg/kg, oxotremorine 0.5 mg/kg i.p.), the oxotremorine-induced trembling result is “a reduction in the intensity of the trembling movements produced by oxotremorine”. Besides, the “temperature (oxotremorine-induced hypothermia)” value in the data set with mice [2] (32 and 128 mg/kg, oxotremorine 0.5 mg/kg i.p.) is listed as “very partial antagonism against the hypothermia produced by oxotremorine”. In addition, the spontaneous motility entry in the data set with mice [3] (mice, 128 and 256 mg/kg) was “moderate increase in the spontaneous motor activity”. For the same molecule, the spontaneous motility entry with mice [3] (mice, dose larger than 128 and 256 mg/kg) is given as “effect disappears”. Also, in the data set on rats [4], the “resumption of avoiding actions” value is “causes a resumption of avoiding actions in animals”. Also, the amphetamine-induced stereotypies entry in the data set with rats [5] (i.p., 256 mg/kg) was “lengthening of the duration of the amphetamine-induced stereotypies”. The hypotensive effect entry in data set [11] is “hypotensive effect”. The “arterial pressure (minimum)” value in data set [11] (4 hours after second administration, from 166 mm Hg) is 142 mm Hg. In [11] (after first administration, from 364), this molecule registered a pulse rate of 334 beats/minute. For the same molecule, in [11] (after second administration), the pulse rate change result was “does not vary” and the “time to minimum arterial pressure” value was 4 h. In addition, the “reduction of arterial pressure” value in [11] (after second administration, statistically significant) came to 13%. Further, the “average reduction of arterial pressure” value in [11] (first administration) amounted to 10%. For the same molecule, the “reduction of pulse rate” value in [11] (first administration, statistically significant) came out at 8%. Moreover, in the data set on mice [6] (from 32 mg/kg upwards), the “motility reduced by habituation to the cage” value is recorded as “causes a resumption of activity in animals habituated to their cage”. The LD50 in data set [12] (mice in groups) was 1050 mg/kg. Also, the selectivity ratio in [12] (read-out: ratio LD50 (isolated mice)/LD50 (mice in groups)) came to 1.43. In addition, in the data set on mice [13], the “number of incorrect moves (four-plate test)” value is recorded as “does not produce an increase in the number of incorrect moves”. For the same molecule, in the data set with central nervous system (mouse, in vivo), the “body temperature effect (product alone)” value is reported as “does not have a hypothermic action”; the “psychopharmacological profile / conclusion” value is “the most marked property is the anti-fatigue activity; also recorded: Some of its effects recall an anti-depressant type of activity, and others recall a psychostimulant type of activity; also recorded: psycho-stimulant properties”. In the data set on mice [14], the “motor incoordination / incapacity” value is “does not cause a major motor deficiency”. Besides, the “intensity of anticataleptic effect compared with amantadine” value in data set [15] was “less intense than that of an 8 times smaller dose of amantadine”. Moreover, in [15] (prochlorperazine 12.5 mg/kg i.p.), the “cataleptigenic action of prochlorperazine” value was “counteracts the cataleptigenic action of prochlorperazine”. The inter-group aggressiveness entry with mice [7] was “reduces the aggressiveness”. Moreover, the mortality result in the data set on mice [8] (at the doses mentioned above (64-1,024 mg/kg)) was “no mortality whatsoever”. In addition, the LD50 in [16] turned out to be 1500 mg/kg. Besides, the reserpine-induced ptosis entry with mice [9] (i.p.) is recorded as “does not modify the intensity of the palpebral ptosis induced by reserpine”. In addition, in the data set on mice [9] (i.p., 64, 128 and 256 mg/kg, reserpine 2.5 mg/kg i.p.), the reserpine-induced hypothermia result was “moderate antagonism towards reserpine-induced hypothermia”. Also, the minimal effective dose with mice [17] (Mus musculus, ip, read-out: dose at which improvement of motor recovery after hypoxia appears) worked out at 32 mg/kg. Further, the “motor recovery after hypoxia/anoxia by pressure reduction” value in the data set with mice [17] (32 mg/kg increasing up to 512 mg/kg) is on record as “causes an improvement in the motor recovery of mice”.
